Measured values taken from the Deep4Chem optical property database.
Blank lines part the entries; values can stand above or below the compound they belong to.

Assay: photoluminescence quantum yield (fraction); solvent given as SMILES
[1] = in c1cc(-c2cccc(-n3c4ccccc4c4ccccc43)c2)cc(-n2c3ccccc3c3ccccc32)c1

Compound: COC(=O)c1nc2cnc(N(C)C)nc2n1Cc1ccccc1
photoluminescence quantum yield (in C1COCCO1): 0.83 | photoluminescence quantum yield (in CC#N): 0.6 | photoluminescence quantum yield (in CO): 0.17 | photoluminescence quantum yield (in ClCCl): 0.81

Compound: COc1ccc(/C=C/c2cc(/C=C/c3ccc(OC)cc3)nc(/C=C/c3ccc(N(c4ccccc4)c4ccccc4)cc3)n2)cc1
photoluminescence quantum yield (in ClCCl): 0.1

Compound: c1ccc2c(c1)Sc1ccc(-n3c4ccccc4c4ccccc43)cc1S2
photoluminescence quantum yield (in CC1CCCCC1): 0.04 | photoluminescence quantum yield [1]: 0.1

Compound: CCCCCCCCc1ccc(-n2c3c4ccccc4nnc3c3c2c2nnc4ccccc4c2n3-c2ccc(CCCCCCCC)cc2)cc1
photoluminescence quantum yield (in Cc1ccccc1): 0

Compound: CN(C)c1[se]c(-c2ccccc2)nc1-c1ccccc1
photoluminescence quantum yield (in ClC(Cl)Cl): 0.029

Compound: CCCc1cc2c(s1)-c1cc3c(cc1NB2c1ccccc1)-c1sc(CCC)cc1B(c1ccccc1)N3
photoluminescence quantum yield (in ClCCl): 0.19

Compound: CCN(CC)c1ccc(/C=C/C2=[O+][B-](F)(F)Oc3c2c(=O)oc2cc(N(CC)CC)ccc32)cc1
photoluminescence quantum yield (in C1CCCCC1): 0.46 | photoluminescence quantum yield (in C1COCCO1): 0.72 | photoluminescence quantum yield (in CC#N): 0.011 | photoluminescence quantum yield (in CC(C)=O): 0.021 | photoluminescence quantum yield (in CCO): 0.044 | photoluminescence quantum yield (in CCOC(C)=O): 0.16 | photoluminescence quantum yield (in CO): 0.016 | photoluminescence quantum yield (in CS(C)=O): 0.035 | photoluminescence quantum yield (in Cc1ccccc1): 0.93 | photoluminescence quantum yield (in ClC(Cl)Cl): 0.75 | photoluminescence quantum yield (in ClCCl): 0.16 | photoluminescence quantum yield (in OCC(O)CO): 0.36 | photoluminescence quantum yield (in OCCO): 0.072

Compound: CN1C(=O)/C(=C/c2ccncc2)N=C1/C=C/c1ccncc1
photoluminescence quantum yield (in C1COCCO1): 0.048 | photoluminescence quantum yield (in CC#N): 0.033 | photoluminescence quantum yield (in CCO): 0.028 | photoluminescence quantum yield (in CCOC(C)=O): 0.041 | photoluminescence quantum yield (in O): 0.013

Compound: CC1(C)c2ccccc2N(c2ccc(-c3ccc(C#N)c(C#N)n3)cc2)c2ccccc21
photoluminescence quantum yield (in Cc1ccccc1): 0.489 | photoluminescence quantum yield (in N#Cc1ccc2c(c1)c1ccccc1n2-c1cccc(-n2c3ccccc3c3ccccc32)c1): 0.904

Compound: CCN1/C(=C\c2c(-c3ccc(N(C)C)cc3)c(=O)c2=O)C=Cc2ccccc21
photoluminescence quantum yield (in C1CCCCC1): 0.0276 | photoluminescence quantum yield (in Cc1ccccc1): 0.0226 | photoluminescence quantum yield (in ClCCl): 0.001

Compound: O=S(=O)(c1cccc(N2c3ccccc3Oc3ccccc32)c1)c1cccc(N2c3ccccc3Oc3ccccc32)c1
photoluminescence quantum yield (in CCCCC(CC)n1c2ccc(-n3c4ccccc4c4ccccc43)cc2c2cc(-n3c4ccccc4c4ccccc43)ccc21): 0.208 | photoluminescence quantum yield (in c1cc(-n2c3ccccc3c3ccccc32)cc(-n2c3ccccc3c3ccccc32)c1): 0.321

Compound: CSc1cc(-c2cc3cc4c5c(c3oc2=O)CCCN5CCC4)oc(=O)c1C#N
photoluminescence quantum yield (in C1CCOC1): 0.9 | photoluminescence quantum yield (in CC#N): 0.29 | photoluminescence quantum yield (in CC(C)=O): 0.43 | photoluminescence quantum yield (in CCOC(C)=O): 0.67 | photoluminescence quantum yield (in CN(C)C=O): 0.26 | photoluminescence quantum yield (in CO): 0.22 | photoluminescence quantum yield (in CS(C)=O): 0.29 | photoluminescence quantum yield (in Cc1ccccc1): 0.71 | photoluminescence quantum yield (in ClC(Cl)Cl): 0.53 | photoluminescence quantum yield (in ClCCl): 0.63

Compound: CN(C)c1ccc(/C=C2\OC(=O)c3cc(N)ccc32)cc1
photoluminescence quantum yield (in CC#N): 0.24 | photoluminescence quantum yield (in CC(C)=O): 0.26 | photoluminescence quantum yield (in CC(C)CO): 0.36 | photoluminescence quantum yield (in CC(C)O): 0.31 | photoluminescence quantum yield (in CCCO): 0.28 | photoluminescence quantum yield (in CCO): 0.22 | photoluminescence quantum yield (in CCOC(C)=O): 0.37 | photoluminescence quantum yield (in CCOCC): 0.4 | photoluminescence quantum yield (in CO): 0.22

Compound: COc1ccc(-c2cc3c(o2)=CC2=Cc4cc5oc(-c6ccc(OC)cc6)cc5n4[B-](F)(F)[N+]=32)cc1
photoluminescence quantum yield (in C1CCOC1): 0.83 | photoluminescence quantum yield (in CC#N): 0.85 | photoluminescence quantum yield (in CCO): 0.77 | photoluminescence quantum yield (in CO): 0.77 | photoluminescence quantum yield (in Cc1ccccc1): 0.87 | photoluminescence quantum yield (in ClC(Cl)Cl): 0.86

Compound: CC1=[N+]2C(=C(c3ccc(N(C)C)cc3)c3ccc(C)n3[B-]2(F)F)C=C1
photoluminescence quantum yield (in C1CCCCC1): 0.37 | photoluminescence quantum yield (in CC#N): 0.008 | photoluminescence quantum yield (in CC(=O)C(C)(C)C): 0.024 | photoluminescence quantum yield (in CC(C)=O): 0.006 | photoluminescence quantum yield (in CCCCCC): 0.376 | photoluminescence quantum yield (in CO): 0.03 | photoluminescence quantum yield (in Cc1ccccc1): 0.15 | photoluminescence quantum yield (in ClC(Cl)Cl): 0.058

Compound: CCCCCCCCN(CCCCCCCC)c1ccc(/C=C/c2ccc(C#Cc3ccc(-c4ccc(C#Cc5ccc(/C=C/c6ccc(N(CCCCCCCC)CCCCCCCC)cc6)cc5)cc4)cc3)cc2)cc1
photoluminescence quantum yield (in Cc1ccccc1): 0.5

Compound: N#Cc1c(-n2c3ccccc3c3cc(I)ccc32)c(C#N)c(-n2c3ccccc3c3cc(I)ccc32)c(-n2c3ccccc3c3cc(I)ccc32)c1-n1c2ccccc2c2cc(I)ccc21
photoluminescence quantum yield (in Cc1ccccc1): 0.78

Compound: NNC(=O)c1ccc(/C=C/c2ccc(C(=O)NN)cc2)cc1
photoluminescence quantum yield (in CN(C)C=O): 0.2

Compound: CCCCCCN(CCCCCC)c1ccc(C#Cc2ccc([N+](=O)[O-])cc2)cc1
photoluminescence quantum yield (in CO): 0.0016 | photoluminescence quantum yield (in ClCCl): 0.0015

Compound: CC(NC(=O)OC(C)(C)C)C(=O)OCc1ccc2c3cccc4cccc(c5cccc1c52)c43 (stereo not given)
photoluminescence quantum yield (in CCO): 0.88

Compound: CC1=C2C=CC(c3ccccc3)=[N+]2[B-](F)(F)n2c1ccc2-c1ccccc1
photoluminescence quantum yield (in ClCCl): 0.64

Compound: c1ccc(-c2ccc(-c3nc(-n4c5ccccc5c5ccc6c7ccccc7n(-c7ccccc7)c6c54)nc(-n4c5ccccc5c5ccc6c7ccccc7n(-c7ccccc7)c6c54)n3)cc2)cc1
photoluminescence quantum yield (in Cc1ccccc1): 0.1

Compound: Fc1c(-c2nnc(-c3ccccc3)o2)c(-n2c3ccccc3c3ccccc32)c(F)c(-n2c3ccccc3c3ccccc32)c1-n1c2ccccc2c2ccccc21
photoluminescence quantum yield (in Cc1ccccc1): 0.2

Compound: Cc1cc(-c2nc(-c3ccccc3)nc(-c3ccccc3)n2)c(C)cc1-c1ccc2c(c1)C1(c3ccccc3-c3ccccc31)c1ccccc1N2c1ccccc1
photoluminescence quantum yield [1]: 0.98

Compound: Cc1ccc(-n2c3ccccc3c3cc(C=C(C#N)C#N)ccc32)cc1
photoluminescence quantum yield (in C1CCOC1): 0.12 | photoluminescence quantum yield (in CC#N): 0.04 | photoluminescence quantum yield (in CC(C)=O): 0.05 | photoluminescence quantum yield (in CCOC(C)=O): 0.09 | photoluminescence quantum yield (in CO): 0.03 | photoluminescence quantum yield (in CS(C)=O): 0.04 | photoluminescence quantum yield (in Cc1ccccc1): 0.11 | photoluminescence quantum yield (in ClC(Cl)Cl): 0.08

Continued, values first:

photoluminescence quantum yield (in C1CCCCC1): 0.001
Compound: COc1ccc(/C=C(\C)c2nc3ccccc3s2)cc1

photoluminescence quantum yield (in ClCCl): 0.55
Compound: COC(=O)c1ccc(Oc2ccc3c4c(cccc24)C(=O)N(c2c(C(C)C)cccc2C(C)C)C3=O)cc1

photoluminescence quantum yield (in C1COCCO1): 0.1 | photoluminescence quantum yield (in CC#N): 0.09 | photoluminescence quantum yield (in CCCCCC): 0.15 | photoluminescence quantum yield (in CCCCCCC): 0.17 | photoluminescence quantum yield (in CCCO): 0.13 | photoluminescence quantum yield (in CCOC(C)=O): 0.08 | photoluminescence quantum yield (in CS(C)=O): 0.15 | photoluminescence quantum yield (in ClC(Cl)Cl): 0.13 | photoluminescence quantum yield (in ClCCl): 0.12
Compound: COc1ccc(C#Cc2ccc(C#N)cc2)cc1

photoluminescence quantum yield (in CO): 0.16
Compound: c1ccc(N(c2ccccc2)c2ccc(-c3ncc(-c4ccc(-c5cnc(-c6ccc(N(c7ccccc7)c7ccccc7)cc6)s5)s4)s3)cc2)cc1

photoluminescence quantum yield (in CO): 0.023 | photoluminescence quantum yield (in ClC(Cl)Cl): 0.02
Compound: Cc1nc2c(ccc3c2sc(/C=C/c2ccc(N(CCO)CCO)cc2)[n+]3C)s1

photoluminescence quantum yield (in CO): 0.17
Compound: CCCCCCc1cc(B(c2c(C)cc(C)cc2C)c2c(C)cc(C)cc2C)c(-c2sc(CCCCCC)cc2P(=O)(c2ccccc2)c2ccccc2)s1

photoluminescence quantum yield (in ClCCl): 0.44
Compound: CCCCN(CCCC)c1ccc(C#Cc2cc(C#Cc3ccc(C(F)(F)F)cc3)c(C#Cc3ccc(C(F)(F)F)cc3)cc2C#Cc2ccc(N(CCCC)CCCC)cc2)cc1

photoluminescence quantum yield (in C1CCOC1): 0.0134 | photoluminescence quantum yield (in CC#N): 0.0205 | photoluminescence quantum yield (in CCCCO): 0.0071 | photoluminescence quantum yield (in O): 0.002 | photoluminescence quantum yield (in c1ccccc1): 0.0112
Compound: CN(C)c1ccc(/C=C/C(=O)O)cc1

photoluminescence quantum yield (in O): 0.0008
Compound: C/C=C/C=C/C1=NC(=C\c2ccc([O-])cc2)/C(=O)N1C

photoluminescence quantum yield (in ClCCl): 0.46
Compound: C[Si]1(C)c2cc(-c3ccc(-c4cccs4)s3)ccc2C=Cc2ccc(-c3ccc(-c4cccs4)s3)cc21

photoluminescence quantum yield (in ClC(Cl)Cl): 0.639
Compound: CN1CCc2cc(C3=Cc4cccc[n+]4[B-](F)(F)O3)ccc21

photoluminescence quantum yield (in ClCCl): 0.178
Compound: CCCCCCOc1cc(N(CC)CC)ccc1/C=C/C(=C(C#N)C#N)c1ccc(N(c2ccccc2)c2ccccc2)cc1

photoluminescence quantum yield (in ClCCl): 0.86
Compound: O=S1(=O)c2ccc(-c3ccc(-n4c5ccccc5c5ccccc54)cc3)cc2C2(c3ccccc3-c3ccccc32)c2cc(-c3ccc(-n4c5ccccc5c5ccccc54)cc3)ccc21

photoluminescence quantum yield (in ClCCl): 0.65
Compound: CC1=C(C#Cc2ccc(B(c3c(C)cc(C)cc3C)c3c(C)cc(C)cc3C)cc2)C(C)=[N+]2C1=C(c1ccccc1)c1c(C)c(C#Cc3ccc(B(c4c(C)cc(C)cc4C)c4c(C)cc(C)cc4C)cc3)c(C)n1[B-]2(F)F

photoluminescence quantum yield (in c1ccccc1): 0.084
Compound: Cc1nc2c(ccc3ccc(N(C)C)cc32)oc1=O

photoluminescence quantum yield (in ClCCl): 0.34
Compound: COC(=O)/C=C/C1=CC2=C(c3c(C)cc(C)cc3C)c3cccn3[B-](F)(F)[N+]2=C1

photoluminescence quantum yield (in ClCCl): 1
Compound: C1=C(c2ccccc2)S[C@]23C1=C(c1ccccc1)[C@H](c1ccccc12)c1ccccc13

photoluminescence quantum yield (in ClCCl): 0.85
Compound: N#Cc1ccc(-n2c(-c3ccc(-c4ccc(-c5nc6c7ccccc7c7ccccc7c6n5-c5ccc(C#N)c6ccccc56)cc4)cc3)nc3c4ccccc4c4ccccc4c32)c2ccccc12

photoluminescence quantum yield (in CO): 0.28
Compound: Cc1ccc(-c2nc(-c3ccccc3O)[nH]c2-c2ccc(C)cc2)cc1

photoluminescence quantum yield (in CC1CCCCC1): 0.54 | photoluminescence quantum yield (in CC#N): 0.46 | photoluminescence quantum yield (in CO): 0.44
Compound: COC(=O)C(NC(=O)OC(C)(C)C)c1ccc2oc(-c3cc(C(F)(F)F)cc(C(F)(F)F)c3)nc2c1 (stereo not given)

photoluminescence quantum yield (in C1CCCCC1): 0.0009
Compound: C(#Cc1cnc(C#Cc2ccccc2)nc1)c1ccccc1

photoluminescence quantum yield (in ClCCl): 0.76
Compound: CN(C)c1ccc(C2=C3C=C(c4ccc(C#N)cc4)S[C@]34c3ccccc3[C@H]2c2ccccc24)cc1

photoluminescence quantum yield (in CCO): 0.0424 | photoluminescence quantum yield (in ClCCl): 0.0634 | photoluminescence quantum yield (in O): 0.07
Compound: O=Cc1ccc(-c2ccc(-c3nc4ccccc4s3)c(O)c2)s1

photoluminescence quantum yield (in C1CCOC1): 0.013
Compound: C1=C2c3cc4ccccc4cc3C3=[N+]2[B-]2(Oc4ccccc43)Oc3ccccc3-c3c4cc5ccccc5cc4c1n32 (stereo not given)

photoluminescence quantum yield (in CC1CCCO1): 0.15
Compound: O=c1cc2c(Br)c(O)c3cccc4ccc(o1)c2c43

photoluminescence quantum yield (in C1CCCCC1): 0.66
Compound: c1ccc(-c2ccc(-c3ccc4c(c3)CCO4)cc2)cc1

photoluminescence quantum yield (in CCO): 0.84
Compound: Cc1c(COC(=O)Cc2cccc3ccccc23)n2c(OCC(=O)Cc3cccc4ccccc34)c(C)c(=O)n2c1=O
